According to patent publication US9944967B2, “Methods for the site-selective introduction of halogen into natural products” (THE REGENTS OF THE UNIVERSITY OF CALIFORNIA, priority 2013, dated 2018):

Experiments:
[1] = test system: malonyl-CoA synthetase (MatB); experiment: Malonyl-CoA synthetase (MatB) coupled assay; type: biochemical, S. coelicolor
Experimental: MatB activity was measured using a modified literature method (Williamson, J. R., et al., Method. Enzymol., 434-513 (1969)). The production of AMP was coupled to pyruvate formation by myokinase and pyruvate kinase, which in turn was coupled to NADH oxidation by lactate dehydrogenase. Assays were performed at 30° C. in a total volume of 200 μL containing 100 mM HEPES, pH 7.5, TCEP (1 mM), ATP (2.5 mM), magnesium chloride (5 mM), phosphoenolpyruvate (1 mM), NADH (0.3 mM), myokinase (0.5 U), pyruvate kinase (3.6 U), lactate dehydrogenase (2.6 U), dicarboxylic acid (25 μM-1 mM malonate, 50 μM-10 mM fluoromalonate or 25 μM-1.5 mM methylmalonate) and MatB (26 nM for malonate, 1 μM for fluoromalonate and 200 nM for methylmalonate). The reaction was initiated with addition of CoA (0.5 mM) and monitored at 340 nm in a Beckman Coulter DU-800 spectrophotometer.

DEBSMod6+TE [2] = experiment: Covalent inhibition assay for DEBSMod6+TE; type: biochemical; settings: 18 h incubation in F-TKL reaction, then tested for TKL production; preliminary
Experimental: Two triketide reaction mixtures (200 μL) were prepared as described above, one containing fluoromalonate (10 mM) and the other methylmalonate (10 mM). DEBSMod6+TE (10 μM) and NDK-SNAC (2.5 mM) were added to each and the reactions were incubated at 37° C. for 18 h. The protein fraction was isolated from each mixture at room temperature by desalting on a Sephadex G-25 column (3 mL) using 400 mM sodium phosphate, pH 7.5. Fractions were pooled by Bradford assay and concentrated to 200 μL using Amicon Ultra spin concentrators (3 kDa MWCO). The isolated DEBSMod6+TE was assayed by adding TCEP (2.5 mM), methylmalonyl-CoA (1 mM) and NDK-SNAC (1 mM) to this mixture to give a final volume of 210 μL and incubating at 37° C. for 3 h, then analyzed by HPLC as described above.

[3] = Stability of fluoromalonyl-CoA solutions; type: physicochemical; settings: room temperature; in water or D2O
Experimental: Fluoromalonyl-CoA was prepared enzymatically from fluoromalonate and CoA using MatB and ATP. A myokinase/pyruvate kinase/PEP system was also used to regenerate ATP in order to avoid high concentrations of AMP that might inhibit MatB. The reaction mixture (10 mL) contained 100 mM sodium phosphate, pH 7.5, phosphoenolpyruvate (5 mM), TCEP (2.5 mM), magnesium chloride (5 mM), fluoromalonate (2.5 mM), ATP (2.5 mM), pyruvate kinase (36 U), myokinase (20 U), CoA (2 mM) and MatB (5 μM). The mixture was incubated at 37° C. for 6 h and then at room temperature for 16 h before lyophilizing overnight. The residue was dissolved in water (1.6 mL) and acidified to pH ˜2 by addition of 70% perchloric acid (160 μL). Insoluble material was removed by centrifugation at 18,000×g for 10 min. […] HR-ESI-MS [M−H]^−: calculated for C24H36FN2O19P3S, m/z, 870.0989. found m/z 870.0991.

DEBSMod6+TE [4] = target: T1, DEBSMod6+TE (Saccharopolyspora erythraea, UniProt Q03133); experiment: Acyl-CoA hydrolysis by DEBSMod6+TE (DTNB assay); type: biochemical
T1 construct: the sixth module of DEBS, including the terminal thioesterase (DEBSMod6+TE); His6 (C); made in house; host or cells: E. coli BAP1
T1 sequence (Q03133 1492-3172): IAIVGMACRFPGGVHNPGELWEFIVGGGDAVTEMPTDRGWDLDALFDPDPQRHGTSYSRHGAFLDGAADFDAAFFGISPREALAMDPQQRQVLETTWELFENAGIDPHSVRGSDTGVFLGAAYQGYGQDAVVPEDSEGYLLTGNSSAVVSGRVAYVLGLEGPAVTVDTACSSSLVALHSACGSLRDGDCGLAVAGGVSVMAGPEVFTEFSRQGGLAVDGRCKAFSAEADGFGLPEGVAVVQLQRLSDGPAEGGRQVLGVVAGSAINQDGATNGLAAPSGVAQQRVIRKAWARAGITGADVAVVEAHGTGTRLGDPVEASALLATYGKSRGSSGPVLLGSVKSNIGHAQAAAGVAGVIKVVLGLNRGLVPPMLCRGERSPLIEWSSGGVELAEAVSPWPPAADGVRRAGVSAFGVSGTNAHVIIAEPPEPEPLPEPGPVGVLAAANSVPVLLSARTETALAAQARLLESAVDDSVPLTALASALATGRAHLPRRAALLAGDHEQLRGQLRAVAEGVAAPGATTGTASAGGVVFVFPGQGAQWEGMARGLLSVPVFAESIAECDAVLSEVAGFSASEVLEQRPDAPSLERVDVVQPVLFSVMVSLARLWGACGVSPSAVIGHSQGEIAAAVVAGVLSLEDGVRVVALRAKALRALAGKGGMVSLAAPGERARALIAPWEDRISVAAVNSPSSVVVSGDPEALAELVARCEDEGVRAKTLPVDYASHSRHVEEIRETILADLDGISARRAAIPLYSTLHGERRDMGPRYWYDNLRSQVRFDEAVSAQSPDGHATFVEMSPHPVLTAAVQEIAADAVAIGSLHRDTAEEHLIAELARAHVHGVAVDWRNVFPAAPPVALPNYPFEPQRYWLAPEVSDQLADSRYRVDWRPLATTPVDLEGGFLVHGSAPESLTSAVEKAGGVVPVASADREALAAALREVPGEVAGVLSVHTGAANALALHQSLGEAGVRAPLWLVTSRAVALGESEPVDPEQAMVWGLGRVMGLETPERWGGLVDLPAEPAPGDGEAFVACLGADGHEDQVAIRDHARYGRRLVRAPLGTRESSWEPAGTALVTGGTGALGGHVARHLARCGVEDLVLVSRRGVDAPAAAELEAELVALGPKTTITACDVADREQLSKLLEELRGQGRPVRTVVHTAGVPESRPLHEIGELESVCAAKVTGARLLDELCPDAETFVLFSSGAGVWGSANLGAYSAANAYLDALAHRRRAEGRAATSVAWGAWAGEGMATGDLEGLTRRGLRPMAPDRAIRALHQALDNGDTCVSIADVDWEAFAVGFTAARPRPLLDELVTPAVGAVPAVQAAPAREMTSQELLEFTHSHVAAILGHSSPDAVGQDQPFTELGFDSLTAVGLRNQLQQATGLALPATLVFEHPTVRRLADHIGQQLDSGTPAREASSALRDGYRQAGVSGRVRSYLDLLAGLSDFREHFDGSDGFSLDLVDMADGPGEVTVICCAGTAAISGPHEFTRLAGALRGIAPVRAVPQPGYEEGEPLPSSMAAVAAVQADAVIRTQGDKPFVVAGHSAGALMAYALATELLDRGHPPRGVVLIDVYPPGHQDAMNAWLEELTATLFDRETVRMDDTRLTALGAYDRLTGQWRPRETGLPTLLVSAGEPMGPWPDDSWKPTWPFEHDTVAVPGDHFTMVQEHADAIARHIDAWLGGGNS
Experimental: Hydrolytic activity of DEBSMod6+TE was measured by monitoring the reaction of free CoA with DTNB as described previously (Huang, F., et al., Chem. Biol., 13:475-484 (2006)). Assays were performed at 37° C. in a total volume of 200 μL containing 400 mM sodium phosphate, pH 7.5, 500 μM DTNB, and DEBSMod6+TE (1 μM). Reactions were initiated by addition of acyl-CoA (0.5 mM) and monitored at 412 nm in a Beckman Coulter DU-800 spectrophotometer. Release of CoA was quantified by comparison to a standard curve (5-100 μM).

Molecule | selectivity of MatB for malonate over fluoromalonate [1] [fold] | covalent inactivation of DEBSMod6+TE (DEBSMod6+TE [2]) | stability of solutions [3] | v0 (rate of acyl-CoA hydrolysis) (DEBSMod6+TE [4]; DEBSMod6 + TE (1 μM), acyl-CoA (500 μM), mean ± s.d. (n = 4)) [µM/min] | Relative rate of acyl-CoA hydrolysis (DEBSMod6+TE [4]; relative to methylmalonyl-CoA)
Fluoromalonate | 103 | – | – | – | –
CC(C)(COP(=O)(O)OP(=O)(O)OC[C@H]1O[C@@H](n2cnc3c(N)ncnc32)[C@H](O)[C@@H]1OP(=O)(O)O)[C@@H](O)C(=O)NCCC(=O)NCCSC(=O)C(F)C(=O)O (some centres unmarked) [Fluoromalonyl-CoA] | – | not due to covalent inactivation of the enzyme | at least 24 h | 3.5 ± 0.3 | 2.6
